{
  "source": "patent US20260027100A1",
  "about": "“THERAPEUTIC TYROSINE KINASE INHIBITORS FOR MYELIN OLIGODENDROCYTE GLYCOPROTEIN ANTIBODY DISEASE (MOGAD)” (Principia Biopharma Inc., priority 2022, published 2026)",
  "format_in_all_cases": "in vivo, human",
  "key": {"[1]": {"assay": "Phase 2b dose-finding trial (DRI15928): PK data and effect of fed status on tolebrutinib exposure", "conditions": "effect of fed status on exposure; Phase 2b trial in relapsing multiple sclerosis", "experimental": "(§1) The choice of the dose of 60 mg of the BTK inhibitor taken with food is based on the results of a Phase 2b dose-finding trial for tolebrutinib in participants with relapsing multiple sclerosis (DRI15928). See for example, Reich, D. S., et al., Safety and efficacy of tolebrutinib, an oral brain-penetrant BTK inhibitor, in relapsing multiple sclerosis: a phase 2b, randomised, double-blind, placebo-controlled trial. Lancet Neurol, 2021. 20(9): p. 729-738.\n(§2) The choice of the dose of 60 mg tolebrutinib taken with food is based on the results of the Phase 2b dose-finding trial for tolebrutinib in adult participants with relapsing multiple sclerosis (DRI15928)."}, "[2]": {"system": "participants with relapsing multiple sclerosis", "assay": "Phase 2b dose-finding trial (DRI15928): treatment response versus exposure, new gadolinium-enhancing T1-hyperintense lesions", "conditions": "after 12 weeks of treatment", "experimental": "as §1, §2"}, "[3]": {"system": "participants with relapsing multiple sclerosis", "assay": "Phase 2b dose-finding trial (DRI15928): safety (TEAEs, AESIs, PCSAs)", "conditions": "Phase 2b trial", "experimental": "as §1\nThere were low numbers of AESIs and PCSAs observed.\nas §2"}, "[4]": {"assay": "Ongoing tolebrutinib Phase 3 trials: hepatic safety", "conditions": "ongoing Phase 3 trials", "description": "Thus, there is a need to mitigate the risk of hepatic injury and provide safe treatment for patients with MOGAD."}},
  "data": [
    {"smiles": "C=CC(=O)N1CCC[C@@H](n2c(=O)n(-c3ccc(Oc4ccccc4)cc3)c3c(N)nccc32)C1", "note": "[tolebrutinib, (R)-1-(1-acryloylpiperidin-3-yl)-4-amino-3-(4-phenoxyphenyl)-1H-imidazo[4,5-c]pyridin-2(3H)-one]", "values": [
      {"measurement": "increase in AUC0-24 (positive food effect)", "setting": "[1]", "result": "approximately 2 fold"},
      {"measurement": "correlation between treatment response and exposure (new gadolinium-enhancing T1-hyperintense lesions)", "setting": "[2]", "result": "higher exposure was associated with low numbers of new gadolinium-enhancing T1-hyperintense lesions"},
      {"measurement": "numbers of AESIs and PCSAs observed", "setting": "[3]", "result": "low numbers"},
      {"measurement": "new risks identified", "setting": "[3]; overall", "result": "no new risks were identified"},
      {"measurement": "correlation between dose administered and number of TEAEs", "setting": "[3]; tolebrutinib treatment arms", "result": "no correlation"},
      {"measurement": "most common events (preferred terms)", "setting": "[3]; tolebrutinib treatment arms", "result": "headache, upper respiratory tract infection, and nasopharyngitis"},
      {"measurement": "drug-induced liver injury", "setting": "[4]", "result": "Drug-induced liver injury has been identified"},
      {"measurement": "time of occurrence of reported liver injury events after start of administration", "setting": "[4]", "result": "2 to 3", "unit": "months"},
      {"measurement": "course of liver enzyme elevation after discontinuation", "setting": "[4]; after tolebrutinib discontinuation", "result": "appears reversible"}
    ]}
  ]
}
